{
  "source": "patent EP0349061B1",
  "about": "“Immunosuppressant agent” (Merck & Co., Inc., priority 1988, dated 1990)",
  "system": "mouse T lymphocytes",
  "test": "T-cell proliferation assay (ionomycin plus PMA induced T-cell stimulation, tritiated thymidine uptake)",
  "type": "cell-based, C57B1/6 mice",
  "conditions": "for IC50: read-out: IC₅₀, inhibition of T-cell proliferation",
  "protocol": "The principle of this assay is to measure the proliferation of mouse T lymphocytes stimulated with the combination of ionomycin plus PMA. A positive sample in this assay will inhibit T-cell proliferation, as indicated by reduced tritiated thymidine uptake.\nPurified demethimmunomycin, as prepared by HPLC above, was dissolved in absolute ethanol at 1 mg/ml.\nSpleens from C57B1/6 mice were taken under sterile conditions and gently dissociated in ice-cold RPMI 1640 culture medium (GIBCO, Grand Island, N.Y.) supplemented with 10% heat-inactivated fetal calf serum (GIBCO). Cells were pelleted by centrifugation at 1500 rpm for 8 minutes. Contaminating red cells were removed by treating the pellet with ammonium chloride lysing buffer (GIBCO) for 2 minutes at 4°C. Cold medium was added and cells were again centrifuged at 1500 rpm for 8 minutes. T lymphocytes were then isolated by separation of the cell suspension on nylon wool columns as follows: Nylon wool columns were prepared by packing approximately 4 grams of washed and dried nylon wool into 20 ml plastic syringes. The columns were sterilized by autoclaving at 250°F [120°C] for 30 minutes. Nylon wool columns were wetted with warm (37°C) culture medium and rinsed with the same medium. Washed spleen cells resuspended in warm medium were slowly applied to the nylon wool. The columns were then incubated in an upright position at 37°C for 1 hour. Non-adherent T lymphocytes were eluted from the columns with warm culture medium and the cell suspensions were spun as above.\nPurified T lymphocytes were resuspended at 2.5 x 10⁵ cells/ml in complete culture medium composed of RPMI 1640 medium with 10% heat-inactivated fetal calf serum, […] glutamine, 1 mM sodium pyruvate, 2 x 10⁻⁵ M 2-mercaptoethanol and 50 »g/ml gentamycin. Ionomycin was added at 250 ng/ml and PMA at 10 ng/ml. The cell suspension was immediately distributed into 96 well flat-bottom microculture plates (Costar)(registered trade mark) at 200 »l/well. The control, being the medium without test drug, and various below-indicated dilutions of the sample (above-described purified demethimmunomycin) to be tested were then added in triplicate wells at 20 »l/well. L-679,934 was used as a standard. The culture plates were then incubated at 37°C in a humidified atmosphere of 5% CO₂-95% air for 44 hours. The proliferation of T lymphocytes was assessed by measurement of tritiated thymidine incorporation. After 44 hours of culturing, the cells were pulse-labelled with 2 »Ci/well of tritiated thymidine (NEN, Cambridge, MA). After another 4 hours of incubation, cultures were harvested on glass fiber filters using a multiple sample harvester. Radioactivity of filter discs corresponding to individual wells was measured by standard liquid scintillation counting methods (Betacounter). Mean counts per minute of replicate wells were calculated and the results expressed as percent inhibition of tritiated thymidine uptake (proliferation) as follows: [formula]\n• 1. Mouse T cell cultures were pulsed with ³H-thymidine for 4 hours prior to harvesting at 48 hours. • 2. […] IC₅₀ = 1.4 ng/ml = 1.81 nM, for demethimmunomycin, (L-638,742), and generally in the range of 1.6 to 1.9 x 10⁻⁹ molar. • 4. Inhibition of T-cell proliferation by demethimmunomycin was reversed by the addition of 50»/ml of IL-2 (recombinant IL-2) at the initiation of culture.",
  "key": {"[1]": {"conditions": "Mus musculus, T-lymphocyte, 48 h"}},
  "note": "Read-outs that look alike come from different tables or passages of the source.",
  "data": [
    {"smiles": "CC[C@@H]1/C=C(\\C)C[C@H](C)C[C@H](OC)[C@H]2O[C@@](O)(C(=O)C(=O)N3CCCC[C@H]3C(=O)O[C@H](/C(C)=C/[C@@H]3CC[C@@H](O)[C@H](O)C3)[C@H](C)[C@@H](O)CC1=O)[C@H](C)C[C@@H]2OC", "note": "[demethimmunomycin, 31-desmethoxy-31-hydroxy-L-683,590]", "values": [
      {"measurement": "inhibition at 0.0006 µg/mL", "setting": "[1]", "result": 0, "unit": "%"},
      {"measurement": "inhibition at 0.0009 µg/mL", "setting": "[1]", "result": 9, "unit": "%"},
      {"measurement": "inhibition at 0.0013 µg/mL", "setting": "[1]", "result": 38.2, "unit": "%"},
      {"measurement": "inhibition at 0.0019 µg/mL", "setting": "[1]", "result": 72.1, "unit": "%"},
      {"measurement": "inhibition at 0.0029 µg/mL", "setting": "[1]", "result": 86.3, "unit": "%"},
      {"measurement": "inhibition at 0.0044 µg/mL", "setting": "[1]", "result": 91.9, "unit": "%"},
      {"measurement": "inhibition at 0.0066 µg/mL", "setting": "[1]", "result": 97.9, "unit": "%"},
      {"measurement": "IC50", "setting": "Mus musculus, T-lymphocyte", "result": 1.4, "unit": "ng/mL"},
      {"measurement": "IC50", "setting": "Mus musculus, T-lymphocyte, range generally found", "result": "1.6 to 1.9", "unit": "nM"},
      {"measurement": "IC50", "setting": "Mus musculus, T-lymphocyte, same value as 1.4 ng/ml, given in molar terms", "result": 1.81, "unit": "nM"},
      {"measurement": "Inhibition of T-cell proliferation on addition of IL-2", "setting": "addition of recombinant IL-2 at the initiation of culture", "result": "reversed"}
    ]}
  ]
}
